Converted amounts (≈) assume the structure as drawn.
What was measured:
Assay in all cases: MIC, GAM agar, anaerobic
Assay type in all cases: cell-based
Bacteroides fragilis V-8 = conditions: V8, GAM agar, anaerobic, 37° C., 40 hours, inoculum 10^6/ML, read-out: Minimum inhibitory concentration (MIC)
Method: (§1) Minimum inhibitory concentration (MIC) for gram
(§2) Note: incubated at 37° C. for 40 hours on GAM agar medium (product
(§3) of Nippon Seiyaku) using anaerobic incubator. Inoculated with 10^6

Bacteroides fragilis V-6 = conditions: V6, GAM agar, anaerobic, 37° C., 40 hours, inoculum 10^6/ML, read-out: Minimum inhibitory concentration (MIC)
Method: as §1, §2, §3

Bacteroides fragilis V-7 = conditions: V7, GAM agar, anaerobic, 37° C., 40 hours, inoculum 10^6/ML, read-out: Minimum inhibitory concentration (MIC)
Method: as §1, §2, §3

[1] = system: Fusobacterium glutinosum 1006; conditions: 37° C., 40 hours, inoculum 10^6/ML, read-out: Minimum inhibitory concentration (MIC)
Method: as §1, §2, §3

In the case of `O=C(Cn1cnnn1)N[C@@H]1C(=O)N2C(C(=O)O)=C(CSc3nncs3)CS[C@H]12` [Ceftezole, reference compound], the MIC (Bacteroides fragilis V-8) is reported as > 100 µg/mL, the MIC (Bacteroides fragilis V-6) is reported as 100 µg/mL (≈ 227 µM) and the MIC (Bacteroides fragilis V-7) is reported as 25 µg/mL (≈ 56.8 µM). The MIC [1] was 6.25 µg/mL (≈ 14.2 µM).

Reference: patent US4214091A, “Antibiotic No. 2-200 and process for producing thereof” (Chugai Seiyaku Kabushiki Kaisha, priority 1977, dated 1980)
